Reference: US7462227B2 (E.I. du Pont de Nemours and Company, priority 2005, dated 2008)
Entries after “also recorded” stand apart in the source; their conditions may differ.

Key:
termites = conditions: Connick et al 2001; cited from earlier work

Protocol for Solubility: In general, solubility of the complex is determined by visual observation, and a complex is considered to be solbilized when a sufficient amount of the complex is dissolved in the solution to permit a desired amount of the complex to be adsorbed on and/or absorbed in the cellulosic material when the treatment thereof occurs.

Compound	solubility in methanol and ethanol (Solubility)	solubility in water (Solubility)	toxicity to termites (termites)
CC(C)Cc1ccc(C(C)C(=O)O)cc1 (centres unmarked) [ibuprofen]	soluble	relatively insoluble; also recorded: only slightly soluble	toxic
CC(C)Cc1ccc(C(C)C(=O)[O-])cc1.[Na+] (centres unmarked) [sodium ibuprofenate]	soluble	relatively insoluble	–
